Results on 20 molecules are retold here after patent US20130165440A1, “JAK1 Inhibitors” (EXELIXIS, INC., priority 2010, published 2013).

The assay has as its target T1, recombinant JAK1 enzyme (Homo sapiens, UniProt P23458).
T1 construct: 8 nM of recombinant JAK1 enzyme (Insect expressed: V866-K1155); host or cells: insect cells
In words: JAK1 Kinase Assay (luciferase-luciferin-coupled chemiluminescence, ATP consumption). The class given is biochemical. The conditions noted are these: 8 nM JAK1 (V866-K1155), 30 μM IRS-1 peptide (Y608), 2 μM ATP, 2 hours ambient temperature, KinaseGlo; read-out: JAK1 IRS-1tide Chemilum (IC50). The protocol:
JAK1 Kinase Assay Used to Test Compounds
JAK1 Kinase activity was measured as the percent of ATP consumed following the kinase reaction using luciferase-luciferin-coupled chemiluminescence. The reaction was conducted in white medium binding 384-well microtiter plates. The kinase reaction were initiated by combining test compounds, 8 nM of recombinant JAK1 enzyme (Insect expressed: V866-K1155), 30 μM of IRS-1 peptide (Y608) and 2 μM ATP in buffer containing 20 mM Hepes (pH 7.5), 10 mM MgCl2, 0.01% Brij, 5% glycerol and 1 mM DTT in a 20 μL volume. The reaction mixture was incubated at ambient temperature for 2 hours. Following the kinase reaction, a 20 μL aliquot of KinaseGlo was added to stop the reaction and measure remaining ATP via detection of chemiluminescence using the Envison reader. Total ATP consumption was limited to 25-60%.
In general terms: Kinase-Glo measures the ATP left after a reaction by luminescence.

T1 sequence (P23458 865-1154 limits assumed): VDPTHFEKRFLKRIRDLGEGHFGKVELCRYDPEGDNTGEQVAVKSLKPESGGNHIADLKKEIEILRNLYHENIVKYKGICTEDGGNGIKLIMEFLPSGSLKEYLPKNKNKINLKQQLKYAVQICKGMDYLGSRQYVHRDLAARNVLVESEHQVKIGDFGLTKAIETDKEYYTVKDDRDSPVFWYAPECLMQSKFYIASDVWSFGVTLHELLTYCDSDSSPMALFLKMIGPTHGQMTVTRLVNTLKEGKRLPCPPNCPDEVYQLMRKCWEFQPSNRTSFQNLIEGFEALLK

`COC(=O)c1ccc(-c2nnc(Nc3cccc(C)c3)c3ccccc23)cc1` [Compound 47]: the IC50 (as a rule, the concentration needed to halve the response being measured) was 500 to 1000 nM. Regarding `O=C1CCCN1c1ccc(-c2nnc(Nc3cc(C(F)(F)F)cc(C(F)(F)F)c3)c3ccccc23)cc1` [Compound 48, 1-[4-(4-{[3,5-bis(trifluoromethyl)phenyl]amino}phthalazin-1-yl)phenyl]pyrrolidin-2-one], the IC50 lay within 2000 to 30000 nM.

Consider `O=C(NCCN1CCOCC1)c1ccc(-c2nnc(Nc3cc(C(F)(F)F)cc(C(F)(F)F)c3)c3ccccc23)cc1` [Compound 49, 4-(4-{[3,5-bis(trifluoromethyl)phenyl]amino}phthalazin-1-yl)-N-(2-morpholin-4-ylethyl)benzamide], for which the IC50 was in the range of 500 to 1000 nM. With `CC(=O)c1cccc(-c2nnc(Nc3cc(C(F)(F)F)cc(C(F)(F)F)c3)c3ccccc23)c1` [Compound 50, 1-[3-(4-{[3,5-bis(trifluoromethyl)phenyl]amino}phthalazin-1-yl)phenyl]ethanone] the figure was 2000 to 30000 nM; with `COC(=O)c1ccc(-c2nnc(Nc3cccc(Br)c3)c3ccccc23)cc1` [Compound 51, methyl 4-{4-[(3-bromophenyl)amino]phthalazin-1-yl}benzoate], 150 to 500 nM. With `FC(F)(F)c1cc(Nc2nnc(-c3ccc(-c4cc[nH]n4)cc3)c3ccccc23)cc(C(F)(F)F)c1` [Compound 52, N-[3,5-bis(trifluoromethyl)phenyl]-4-[4-(1H-pyrazol-3-yl)phenyl]phthalazin-1-amine] the figure was 150 to 500 nM; with `COC(=O)c1ccc(-c2nnc(Nc3ccc(F)c(C(F)(F)F)c3)c3ccccc23)cc1` [Compound 53, methyl 4-(4-{[4-fluoro-3-(trifluoromethyl)phenyl]amino}phthalazin-1-yl)benzoate], 500 to 1000 nM. As to `COC(=O)c1ccc(-c2nnc(Nc3cccc(C#N)c3)c3ccccc23)cc1` [Compound 54, methyl 4-{4-[(3-cyanophenyl)amino]phthalazin-1-yl}benzoate], the IC50 was 2000 to 30000 nM.

Consider `CNC(=O)c1ccc(-c2nnc(Nc3cc(C(F)(F)F)cc(C(F)(F)F)c3)c3ccccc23)cc1` [Compound 55, 4-(4-{[3,5-bis(trifluoromethyl)phenyl]amino}phthalazin-1-yl)-N-methylbenzamide], for which the IC50 lay in the range of 150 to 500 nM. Take `Cc1n[nH]c2cc(-c3nnc(Nc4cc(C(F)(F)F)cc(C(F)(F)F)c4)c4ccccc34)ccc12` [Compound 56, N-[3,5-bis(trifluoromethyl)phenyl]-4-(3-methyl-1H-indazol-6-yl)phthalazin-1-amine]: the IC50 is 150 to 500 nM. `COC(=O)c1ccc(-c2nnc(Nc3cccc(C(C)C)c3)c3cnccc23)cc1` [Compound 57, methyl 4-(4-{[3-(1-methylethyl)phenyl]amino}pyrido[3,4-d]pyridazin-1-yl)benzoate]: the IC50 is 500 to 1000 nM. For the molecule `COC(=O)c1ccc(-c2nnc(Nc3cccc(C(F)(F)F)c3)c3ccccc23)cc1` [Compound 58, methyl 4-(4-{[3-(trifluoromethyl)phenyl]amino}phthalazin-1-yl)benzoate], the IC50 was at most 150 nM. With `COC(=O)c1ccc(-c2nnc(Nc3cc(C)cc(Br)c3)c3ccccc23)cc1` [Compound 59, methyl 4-{4-[(3-bromo-5-methylphenyl)amino]phthalazin-1-yl}benzoate] the figure was 150 to 500 nM; with `COC(=O)c1ccc(-c2nnc(Nc3cc(CCN(C)C)cc(C(F)(F)F)c3)c3ccccc23)cc1` [Compound 60, methyl 4-[4-({3-[2-(dimethylamino)ethyl]-5-(trifluoromethyl)phenyl}amino)phthalazin-1-yl]benzoate], 500 to 1000 nM; with `Cc1cc(-c2ccc(-c3nnc(Nc4cc(C(F)(F)F)cc(C(F)(F)F)c4)c4ccccc34)cc2)n[nH]1` [Compound 61, N-[3,5-bis(trifluoromethyl)phenyl]-4-[4-(5-methyl-1H-pyrazol-3-yl)phenyl]phthalazin-1-amine], 500 to 1000 nM.

With `COC(=O)c1ccc(-c2nnc(Nc3cccc(C(C)C)c3)c3ccccc23)cc1` [Compound 62, methyl 4-(4-{[3-(1-methylethyl)phenyl]amino}phthalazin-1-yl)benzoate], the IC50 was in the range of 150 to 500 nM. For the molecule `COC(=O)c1ccc(-c2nnc(Nc3cccc(N(C)C)c3)c3ccccc23)cc1` [Compound 63, methyl 4-(4-{[3-(dimethylamino)phenyl]amino}phthalazin-1-yl)benzoate], the IC50 lay in the range of 2000 to 30000 nM. Next, `COC(=O)c1ccc(-c2nnc(Nc3cc(C(F)(F)F)cc(C(F)(F)F)c3)c3ccccc23)c(C)c1` [Compound 64, methyl 4-(4-{[3,5-bis(trifluoromethyl)phenyl]amino}phthalazin-1-yl)-3-methylbenzoate]: 500 to 1000 nM; `COC(=O)c1ccc(-c2nnc(Nc3cc(C)cc(C(F)(F)F)c3)c3ccccc23)cc1` [Compound 65, methyl 4-(4-{[3-methyl-5-(trifluoromethyl)phenyl]amino}phthalazin-1-yl)benzoate]: at most 150 nM; `COC(=O)c1ccc(-c2nnc(Nc3cc(C(F)(F)F)cc(C(F)(F)F)c3)c3ccccc23)cc1` [Compound 66, methyl 4-(4-{[3,5-bis(trifluoromethyl)phenyl]amino}phthalazin-1-yl)benzoate]: 150 to 500 nM.
